These results are taken from patent US20260297083A1, “SUBSTITUTED ACETYLENE COMPOUND DERIVATIVES AND THEIR PHARMACEUTICAL USE” (AVELOS THERAPEUTICS INC., priority 2023, published 2026).

Where only a bound is given, the exact number is not on record here.

This assay relates to DLD-1 BRCA2(−/−) Cell. Briefly: Cell viability assay (Resazurin) in DLD1-BRCA2 cells. The class given is cell-based. The conditions noted are these: Homo sapiens, DLD-1, 336 h, 14 days, 1,500 cells/well, final DMSO 1%. In short, it runs like this: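 DLD1-BRCA2 KG cells seeded at 1,500/well (parental 600/well) in RPMI-1640 with 10% FBS, compound added after 4 h (1% DMSO), media replaced every 3-4 days over 14 days at 37° C. Viability read by resazurin (0.1 mg/ml, 4 h) fluorescence at Ex/Em 560/590 nm; IC50 fitted.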
For orientation: Alamar Blue is a resazurin reagent that responds to reducing activity.
One may read the IC50 as the concentration at which inhibition is half-maximal. As for `Cc1cc(C(F)(F)F)cc(N2[C@H](C(=O)N(CC#Cc3nccc(N4CCOCC4)n3)c3ccc(F)c(C)c3)CCS2(=O)=O)n1` [Example 80, (S)-N-(4-fluoro-3-methylphenyl)-2-(6-methyl-4-(trifluoromethyl)pyridin-2-yl)-N-(3-(4-morpholinopyrimidin-2-yl)prop-2-yn-1-yl)isothiazolidine-3-carboxamide 1,1-dioxide], the IC50 is under 1000 nM. The figure for `Cc1cc(C(F)(F)F)cc(N2[C@H](C(=O)N(CC#Cc3ncc(C(N)=O)cn3)c3ccc(F)c(C)c3)CCS2(=O)=O)n1` [Example 81, (S)-N-(3-(5-carbamoylpyrimidin-2-yl)prop-2-yn-1-yl)-N-(4-fluoro-3-methylphenyl)-2-(6-methyl-4-(trifluoromethyl)pyridin-2-yl)isothiazolidine-3-carboxamide 1,1-dioxide] is under 1000 nM; for `Cc1cc(C(F)(F)F)cc(N2[C@H](C(=O)N(CC#Cc3ncc(C(=O)N4CCOCC4)cn3)c3ccc(F)c(C)c3)CCS2(=O)=O)n1` [Example 82, (S)-N-(4-fluoro-3-methylphenyl)-2-(6-methyl-4-(trifluoromethyl)pyridin-2-yl)-N-(3-(5-(morpholine-4-carbonyl)pyrimidin-2-yl)prop-2-yn-1-yl)isothiazolidine-3-carboxamide 1,1-dioxide] it is under 1000 nM; for `Cc1cc(C(F)(F)F)cc(N2[C@H](C(=O)N(CC#Cc3ncc(C(=O)N4C5CCC4COC5)cn3)c3ccc(F)c(C)c3)CCS2(=O)=O)n1` [Example 83, (3S)-N-(3-(5-(3-oxa-8-azabicyclo[3.2.1]octane-8-carbonyl)pyrimidin-2-yl)prop-2-yn-1-yl)-N-(4-fluoro-3-methylphenyl)-2-(6-methyl-4-(trifluoromethyl)pyridin-2-yl)isothiazolidine-3-carboxamide 1,1-dioxide] it is under 1000 nM.

`Cc1cc(C(F)(F)F)cc(N2[C@H](C(=O)N(CC#Cc3ccc(N4CCOCC4)cn3)c3ccc(F)c(C)c3)CCS2(=O)=O)n1` [Example 84, (S)-N-(4-fluoro-3-methylphenyl)-2-(6-methyl-4-(trifluoromethyl)pyridin-2-yl)-N-(3-(5-morpholinopyridin-2-yl)prop-2-yn-1-yl)isothiazolidine-3-carboxamide 1,1-dioxide]: the IC50 is under 1000 nM. The figure for `Cc1cc(C(F)(F)F)cc(N2[C@H](C(=O)N(CC#Cc3ccc(N4CCOCC4)nc3)c3ccc(F)c(C)c3)CCS2(=O)=O)n1` [Example 85, (S)-N-(4-fluoro-3-methylphenyl)-2-(6-methyl-4-(trifluoromethyl)pyridin-2-yl)-N-(3-(6-morpholinopyridin-3-yl)prop-2-yn-1-yl)isothiazolidine-3-carboxamide 1,1-dioxide] is under 1000 nM; for `Cc1cc(C(F)(F)F)cc(N2[C@H](C(=O)N(CC#Cc3cccc(N4CCOCC4)n3)c3ccc(F)c(C)c3)CCS2(=O)=O)n1` [Example 86, (S)-N-(4-fluoro-3-methylphenyl)-2-(6-methyl-4-(trifluoromethyl)pyridin-2-yl)-N-(3-(6-morpholinopyridin-2-yl)prop-2-yn-1-yl)isothiazolidine-3-carboxamide 1,1-dioxide] it is under 1000 nM; for `Cc1cc(C(F)(F)F)cc(N2[C@H](C(=O)N(CC#Cc3cccc(=O)[nH]3)c3ccc(F)c(C)c3)CCS2(=O)=O)n1` [Example 87, (S)-N-(4-fluoro-3-methylphenyl)-2-(6-methyl-4-(trifluoromethyl)pyridin-2-yl)-N-(3-(6-oxo-1,6-dihydropyridin-2-yl)prop-2-yn-1-yl)isothiazolidine-3-carboxamide 1,1-dioxide] it is under 1000 nM. With `Cc1cc(C(F)(F)F)cc(N2[C@H](C(=O)N(CC#Cc3cccc(OC(C)C)n3)c3ccc(F)c(C)c3)CCS2(=O)=O)n1` [Example 88, (S)-N-(4-fluoro-3-methylphenyl)-N-(3-(6-isopropoxypyridin-2-yl)prop-2-yn-1-yl)-2-(6-methyl-4-(trifluoromethyl)pyridin-2-yl)isothiazolidine-3-carboxamide 1,1-dioxide], the concentration for half-maximal inhibition (IC50) lay in the range of 1100 to 5000 nM. The figure for `Cc1cc(C(F)(F)F)cc(N2[C@H](C(=O)N(CC#Cc3cccc(OC(F)F)n3)c3ccc(F)c(C)c3)CCS2(=O)=O)n1` [Example 89, (S)-N-(3-(6-(difluoromethoxy)pyridin-2-yl)prop-2-yn-1-yl)-N-(4-fluoro-3-methylphenyl)-2-(6-methyl-4-(trifluoromethyl)pyridin-2-yl)isothiazolidine-3-carboxamide 1,1-dioxide] is 1100 to 5000 nM. The figure for `Cc1cc(C(F)(F)F)cc(N2[C@H](C(=O)N(CC#Cc3cc(C)c(F)c(C)n3)c3ccc(F)c(C)c3)CCS2(=O)=O)n1` [Example 90, (S)-N-(4-fluoro-3-methylphenyl)-N-(3-(5-fluoro-4,6-dimethylpyridin-2-yl)prop-2-yn-1-yl)-2-(6-methyl-4-(trifluoromethyl)pyridin-2-yl)isothiazolidine-3-carboxamide 1,1-dioxide] is 1100 to 5000 nM; for `Cc1cc(C(F)(F)F)cc(N2[C@H](C(=O)N(CC#Cc3cc(C)c(N)c(C)n3)c3ccc(F)c(C)c3)CCS2(=O)=O)n1` [Example 91, (S)-N-(3-(5-amino-4,6-dimethylpyridin-2-yl)prop-2-yn-1-yl)-N-(4-fluoro-3-methylphenyl)-2-(6-methyl-4-(trifluoromethyl)pyridin-2-yl)isothiazolidine-3-carboxamide 1,1-dioxide] it is 1100 to 5000 nM. The figure for `Cc1cc(C(F)(F)F)cc(N2[C@H](C(=O)N(CC#Cc3cccc(=O)n3C)c3ccc(F)c(C)c3)CCS2(=O)=O)n1` [Example 92, (S)-N-(4-fluoro-3-methylphenyl)-2-(6-methyl-4-(trifluoromethyl)pyridin-2-yl)-N-(3-(1-methyl-6-oxo-1,6-dihydropyridin-2-yl)prop-2-yn-1-yl)isothiazolidine-3-carboxamide 1,1-dioxide] is under 1000 nM; for `Cc1cc(C(F)(F)F)cc(N2[C@H](C(=O)N(CC#Cc3ccc(F)cn3)c3ccc(F)c(C)c3)CCS2(=O)=O)n1` [Example 93, (S)-N-(4-fluoro-3-methylphenyl)-N-(3-(5-fluoropyridin-2-yl)prop-2-yn-1-yl)-2-(6-methyl-4-(trifluoromethyl)pyridin-2-yl)isothiazolidine-3-carboxamide 1,1-dioxide] it is under 1000 nM. Take `Cc1cc(C(F)(F)F)cc(N2[C@H](C(=O)N(CC#Cc3ccc(F)c(C(C)C)n3)c3ccc(F)c(C)c3)CCS2(=O)=O)n1` [Example 94, (S)-N-(4-fluoro-3-methylphenyl)-N-(3-(5-fluoro-6-isopropylpyridin-2-yl)prop-2-yn-1-yl)-2-(6-methyl-4-(trifluoromethyl)pyridin-2-yl)isothiazolidine-3-carboxamide 1,1-dioxide]: the IC50 was 1100 to 5000 nM. As for `Cc1cc(C(F)(F)F)cc(N2[C@H](C(=O)N(CC#Cc3ccc(C(N)=O)nc3)c3ccc(F)c(C)c3)CCS2(=O)=O)n1` [Example 95, (S)-N-(3-(6-carbamoylpyridin-3-yl)prop-2-yn-1-yl)-N-(4-fluoro-3-methylphenyl)-2-(6-methyl-4-(trifluoromethyl)pyridin-2-yl)isothiazolidine-3-carboxamide 1,1-dioxide], the IC50 is under 1000 nM. Compound `Cc1cc(C(F)(F)F)cc(N2[C@H](C(=O)N(CC#Cc3cnc(C(N)=O)c(F)c3)c3ccc(F)c(C)c3)CCS2(=O)=O)n1` [Example 96, (S)-N-(3-(6-carbamoyl-5-fluoropyridin-3-yl)prop-2-yn-1-yl)-N-(4-fluoro-3-methylphenyl)-2-(6-methyl-4-(trifluoromethyl)pyridin-2-yl)isothiazolidine-3-carboxamide 1,1-dioxide] displayed a half-inhibitory concentration (IC50) of under 1000 nM. `Cc1cc(C(F)(F)F)cc(N2[C@H](C(=O)N(CC#Cc3ccc(C(N)=O)cn3)c3ccc(F)c(C)c3)CCS2(=O)=O)n1` [Example 97, (S)-N-(3-(5-carbamoylpyridin-2-yl)prop-2-yn-1-yl)-N-(4-fluoro-3-methylphenyl)-2-(6-methyl-4-(trifluoromethyl)pyridin-2-yl)isothiazolidine-3-carboxamide 1,1-dioxide] displayed an IC50 of under 1000 nM. The figure for `Cc1cc(C(F)(F)F)cc(N2[C@H](C(=O)N(CC#Cc3cnc4c(c3)CN(C)C4=O)c3ccc(F)c(C)c3)CCS2(=O)=O)n1` [Example 98, (S)-N-(4-fluoro-3-methylphenyl)-2-(6-methyl-4-(trifluoromethyl)pyridin-2-yl)-N-(3-(6-methyl-7-oxo-6,7-dihydro-5H-pyrrolo[3,4-b]pyridin-3-yl)prop-2-yn-1-yl)isothiazolidine-3-carboxamide 1,1-dioxide] is under 1000 nM; for `Cc1cc(C(F)(F)F)cc(N2[C@H](C(=O)N(CC#Cc3cnc4c(c3)C(C)(C)N(C)C4=O)c3ccc(F)c(C)c3)CCS2(=O)=O)n1` [Example 99, (S)-N-(4-fluoro-3-methylphenyl)-2-(6-methyl-4-(trifluoromethyl)pyridin-2-yl)-N-(3-(5,5,6-trimethyl-7-oxo-6.7-dihydro-5H-pyrrolo[3,4-b]pyridin-3-yl)prop-2-yn-1-yl)isothiazolidine-3-carboxamide 1,1-dioxide] it is 1100 to 5000 nM.

Consider `Cc1cc(C(F)(F)F)cc(N2[C@H](C(=O)N(CC#Cc3cnc4c(c3)C(=O)N(C)C4=O)c3ccc(F)c(C)c3)CCS2(=O)=O)n1` [Example 100, (S)-N-(4-fluoro-3-methylphenyl)-2-(6-methyl-4-(trifluoromethyl)pyridin-2-yl)-N-(3-(6-methyl-5,7-dioxo-6,7-dihydro-5H-pyrrolo[3,4-b]pyridin-3-yl)prop-2-yn-1-yl)isothiazolidine-3-carboxamide 1,1-dioxide], for which the IC50 was over 5100 nM.

`Cc1cc(C(F)(F)F)cc(N2[C@H](C(=O)N(CC#Cc3n[nH]c(=O)c4ccccc34)c3ccc(F)c(C)c3)CCS2(=O)=O)n1` [Example 101, (S)-N-(4-fluoro-3-methylphenyl)-2-(6-methyl-4-(trifluoromethyl)pyridin-2-yl)-N-(3-(4-oxo-3,4-dihydrophthalazin-1-yl)prop-2-yn-1-yl)isothiazolidine-3-carboxamide 1,1-dioxide] returned a concentration for half-maximal inhibition (IC50) of 1100 to 5000 nM.
